Test results published in article PMC7415810, “A novel nucleolin-binding peptide for Cancer Theranostics” (Theranostics, 2020).

Key:
MDA-MB-231-luc xenograft = test: Tumorigenesis experiment, MDA-MB-231-luc breast cancer xenograft; settings: 16.68 mg/kg (molar equivalent to 2 mg/kg of PTX), tail vein twice a week, n = 5
Procedure: All animal experiments were performed in accordance with IACUC guidelines (GIST-2019-040). For tumorigenesis experiments, anesthetized 6-week-old female NOD-scid Il2rg^-^/^- mice (NPG^TM, VITALSTAR) were inoculated in the mammary fat pad with 1 × 10^6 MDA-MB-231-luc cells in a 100 μl volume (n = 5 for each group). After tumor cell inoculation, when the tumor volume reached approximately 100 mm^3, the mice were randomly divided into the following five groups: (i) control, (ii) low-dose paclitaxel (2 mg/kg), (iii) high-dose paclitaxel (10 mg/kg), (iv) AGM-330 (16.68 mg/kg, molar equivalent to 2 mg/kg of PTX), and (v) AGM-330-PTX (19.05 mg/kg, molar equivalent to 2 mg/kg of PTX). The tumor size was measured twice a week, and the tumor volume was calculated with the following formula: volume (mm^3) = [length (mm)] × [width (mm)]^2 × 0.5. For the bioluminescent imaging experiment, D-luciferin (150 mg/kg; PerkinElmer) was intraperitoneally injected into each mouse, and an IVIS 100 imaging system (Xenogen, Corporation, Alameda, CA) was used for bioluminescent monitoring. Mice were anesthetized with vaporized isofurane (BK Pharm, Ilsan, Korea) and placed in an imaging chamber. After 10 min, each animal was imaged with an exposure time of 1 min. All bioluminescent image data were obtained using Living Image software (version 4.5.2, PerkinElmer). Photons detected from tumors were converted to average radiance values (photon/sec/cm^2/sr), which are quantitative data obtained from a region of […] (ROI) and include the photons emitted by bioluminescent cells from an assigned rectangular area over the whole body of each mouse.
A, Cell proliferation inhibition by AGM-330-PTX treatment was determined for 48 h by the WST assay in multiple breast and colorectal cancer cells and in normal cells. B, Schematic representation of the experimental protocol as described in the materials and methods section. Anesthetized 6‑week-old […] NPG mice were inoculated with a 1:1 mix of Matrigel and 1 × 10^6 MDA-MB-231-luc cells into the mammary fat pad. When the volume of primary tumors reached approximately 100 mm^3, tumor-bearing mice were treated with vehicle (PBS), PTX (2 or 10 mg/kg), AGM-330 (16.68 mg/kg, molar equivalent to 2 mg/kg of PTX), or AGM-330-PTX (19.05 mg/kg, molar equivalent to 2 mg/kg of PTX; n = 5/group). C-E, The therapeutic effect of AGM-330-PTX was evaluated in breast cancer xenograft models. C, Primary tumor volume was measured twice a week until the day of sacrifice. The primary tumor volume was calculated by the formula volume (mm^3) = (length (mm)) × (width (mm))^2 × 0.5. D, On the day of sacrifice, all primary tumors were isolated, and (E) the primary tumor weights were evaluated. F-I, Immunohistochemistry (IHC) sections of representative tumors with Ki-67 (F,H) and TUNEL (G,I) staining. Nuclei were stained with DAPI (blue). Scale bar, 50 µm. Bar graphs represent the mean ± SD, and statistical analyses were performed by one-way ANOVA with Dunnett's multiple comparison. *, **, and *** indicate P < 0.05, P < 0.01, and P < 0.001, respectively.
Following in vitro proliferation analysis on cancer lines, we investigated whether AGM-330-PTX could be a potential therapeutic agent in vivo. We inoculated MDA-MB-231-luc cells into the mammary fat pad of NPG mice. After the […] tumors grew to 100 mm^3, comparative efficacy studies were performed by dividing the animals into five groups (n = 5/group) treated with vehicle (PBS), PTX (2 or 10 mg/kg, respectively), AGM-330 (16.68 mg/kg, molar equivalent to 2 mg/kg of PTX), or AGM-330-PTX (19.05 mg/kg, molar equivalent to 2 mg/kg of PTX) twice a week by tail vein injection (Figure 5B). Tumor growth was monitored by measuring volumes twice a week with a caliber rule over the course of 3 weeks.
Figure S11. A-E, NPG TM mice bearing MDA-MB-231-luc tumors were treated twice a week for 21 days with […]

CCD-18Co = settings: read-out: IC50, CCD-18Co; 48 h treatment, WST-1
Procedure: (§1) Cancer and normal cells (1 × 10^4 cells/well) were seeded in 96-well plates, incubated for 24 h, and then treated with increasing concentrations of AGM-330, PTX, and AGM-330-PTX for 48 h. Cell viability was assessed by the CellVia WST-1 assay (Young In Frontier) according to the manufacturer's instructions. The numbers of viable cells were measured at a wavelength of 450 nm using a VersaMax ELISA plate reader (Molecular Devices, San Jose, CA, USA).
(§2) Figure S3. A-C, Cancer and normal cells (1 × 10^4 cells/well) were seeded in 96-well plates. After 24 h of incuba-tion, the cells were treated with an increasing concentration of dimeric or tetrameric AGM-330 for 48 h. The viability of cells grown in 0 % FBS (A), 5 % FBS (B) or 10 % FBS (C) was assessed by a CellVia WST-1 assay (Young In Frontier, Seoul, Korea) according to the manufacturer’s instruction. The numbers of viable cells were measured at a wavelength of 450 nm using an VersaMax ELISA plate reader (Molecular Devices). D, E, Binding specificity of AGM-330. A whole-cell binding assay was performed to determine the cell binding of AGM-330 in 1 % FBS (D) or 5 % FBS (E). Scale bar, 200 μm.

HCT-116 = settings: read-out: IC50, HCT-116; 48 h treatment, WST-1
Procedure: as §1, §2

HT-29 = settings: read-out: IC50, HT-29; 48 h treatment, WST-1
Procedure: as §1, §2

MCF-7 = settings: read-out: IC50, MCF-7; 48 h treatment, WST-1
Procedure: as §1, §2

SMILES: CSCC[C@H](NC(=O)[C@H](C)NC(=O)CNC(=O)[C@H](Cc1c[nH]cn1)NC(=O)[C@@H](N)CCCNC(=N)N)C(=O)N[C@H](C(=O)N[C@@H](Cc1ccc(O)cc1)C(=O)N[C@@H](CC(C)C)C(=O)N[C@@H](CCCCN)C(=O)NCCOCCOCCOCCOCCOCCOCCOCCOCCOCCOCCOCCOCCC(=O)NCCCC[C@H](NC(=O)CCOCCOCCOCCOCCOCCOCCOCCOCCOCCOCCOCCOCCNC(=O)[C@H](CCCCN)NC(=O)[C@H](CC(C)C)NC(=O)[C@H](Cc1ccc(O)cc1)NC(=O)[C@@H](NC(=O)[C@H](CCSC)NC(=O)[C@H](C)NC(=O)CNC(=O)[C@H](Cc1c[nH]cn1)NC(=O)[C@@H](N)CCCNC(=N)N)C(C)C)C(=O)NCCCC[C@H](NC(=O)[C@H](CCCCNC(=O)CCOCCOCCOCCOCCOCCOCCOCCOCCOCCOCCOCCOCCNC(=O)[C@H](CCCCN)NC(=O)[C@H](CC(C)C)NC(=O)[C@H](Cc1ccc(O)cc1)NC(=O)[C@@H](NC(=O)[C@H](CCSC)NC(=O)[C@H](C)NC(=O)CNC(=O)[C@H](Cc1c[nH]cn1)NC(=O)[C@@H](N)CCCNC(=N)N)C(C)C)NC(=O)CCOCCOCCOCCOCCOCCOCCOCCOCCOCCOCCOCCOCCNC(=O)[C@H](CCCCN)NC(=O)[C@H](CC(C)C)NC(=O)[C@H](Cc1ccc(O)cc1)NC(=O)[C@@H](NC(=O)[C@H](CCSC)NC(=O)[C@H](C)NC(=O)CNC(=O)[C@H](Cc1c[nH]cn1)NC(=O)[C@@H](N)CCCNC(=N)N)C(C)C)C(=O)N[C@@H](CS)C(=O)O)C(C)C [AGM-330]
- average tumor volume versus vehicle (PBS)-treated mice (MDA-MB-231-luc xenograft): no significant difference
- IC50 (CCD-18Co): > 100 µM
- IC50 (HCT-116): > 100 µM
- IC50 (HT-29): > 100 µM
- IC50 (MCF-7): > 100 µM
